This is an account of results in patent US20040260318A1, “Anastomotic connector devices” (Angiotech International AG, priority 2003, published 2004).

For one experiment, the system named is collagenase expression. The experiment in a line: Effect of other anti-microtubule agents on IL-1-induced collagenase expression in primary chondrocytes. The class given is cell-based, calf. The conditions noted are these: pre-incubation of chondrocytes 6 hours, then IL-1 20 ng/ml 18 hours; FIGS. 7A-H. The method, then: Primary chondrocyte cultures were freshly isolated from calf cartilage. The cells were plated at 2.5×10^6 per ml in 100×20 mm culture dishes and incubated in Ham's F12 medium containing 5% FBS overnight at 37° C. The cells were starved in serum-free medium overnight and then treated with anti-microtubule agents at various concentrations for 6 hours. IL-1 (20 ng/ml) was then added to each plate and the plates incubated for an additional 18 hours. Total RNA was isolated by the acidified guanidine isothiocyanate method and subjected to electrophoresis on a denatured gel. Denatured RNA samples (15 μg) were analyzed by gel electrophoresis in a 1 % denatured gel, transferred to a nylon membrane and hydridized with the ^32P-labeled collagenase cDNA probe. ^32P-labeled glyceraldehyde phosphate […] (GAPDH) cDNA as an internal standard to ensure roughly equal loading. The exposed films were scanned and quantitatively analyzed with ImageQuant.

A further experiment has as its system human fibroblasts. The experiment in a line: Screening assay for effect on cell proliferation (CYQUANT fluorescence). Particulars: Fibroblast, 72 hours incubation, FIG. 2. The class given is cell-based. The procedure: Fibroblasts at 70-90% confluency are trypsinized, replated at 600 cells/well in media in 96-well plates and allowed to attachment overnight. Mitoxantrone is prepared in DMSO at a concentration of 10^−2 M and diluted 10-fold to give a range of stock concentrations (10^−8 M to 10^−2 M). Drug dilutions are diluted 1/1000 in media and added to cells to give a total volume of 200 μL/well. Each drug concentration is tested in triplicate wells. Plates containing fibroblasts and mitoxantrone are incubated at 37° C. for 72 hours (In vitro toxicol. (1990) 3:219; Biotech. Histochem. (1993) 68: 29; Anal. Biochem. (1993) 213:426).
To terminate the assay, the media is removed by gentle aspiration. A 1/400 dilution of CYQUANT 400× GR dye indicator (Molecular Probes; Eugene, Ore.) is added to […] Cell Lysis buffer, and 200 μL of the mixture is added to the wells of the plate. Plates are incubated at room temperature, protected from light for 3-5 minutes. Fluorescence is read in a fluorescence microplate reader at ˜480 nm excitation wavelength and ˜520 nm emission maxima. […] An average of n=4 replicate experiments is used to determine IC50 values.

Experiment [1] has as its system MCP-1 production by THP-1 cells. The experiment in a line: MCP-1 production by macrophages (opsonized zymosan stimulated, ELISA). The class given is cell-based. Particulars: Homo sapiens, 24 hours, 1 mg/mL opsonized zymosan, FIG. 11. The method, then: (§1) The human macrophage cell line, THP-1 is plated in a 12 well plate such that each well contains 1×10^6 cells in 2 mL of media containing 10% FCS. Opsonized zymosan is prepared by resuspending 20 mg of zymosan A in 2 mL of ddH2O and homogenizing until a uniform suspension is obtained. Homogenized zymosan is pelleted at 250 g and resuspended in 4 mL of human serum for a final concentration of 5 mg/mL. and incubated in a 37° C. water bath for 20 minutes to enable opsonization. Geldanamycin is prepared in DMSO at a concentration of 10^−2 M and serially diluted 10-fold to give a range of stock concentrations (10^−8 M to 10^−2 M).
THP-1 cells are stimulated to produce MCP-1 by the addition of 1 mg/mL opsonized zymosan. Geldanamycin is added to THP-1 cells by directly adding DMSO stock solutions, prepared earlier, at a 1/1000 dilution, to each well. […]
After a 24 hour stimulation, supernatants are collected to quantify MCP-1 production. MCP-1 concentrations in the supernatants are determined by ELISA using recombinant human MCP-1 to obtain a standard curve. […] The dilution of Capture Antibody used is lot-specific and is determined empirically. […] Stop Solution (2 N H2SO4) is then added to the wells and a yellow colour reaction is read at 450 nm with λ correction at 570 nm. Mean absorbance is determined from triplicate data readings and the mean background is subtracted. […]
For orientation: In an ELISA, binding on a coated surface is turned into a signal by an enzyme label.

Experiment [2] deals with IL-1β production by THP-1 cells. Briefly: IL-1β production by macrophages (opsonized zymosan stimulated, ELISA). The class given is cell-based. The conditions noted are these: Homo sapiens, 24 hours, 1 mg/mL opsonized zymosan, FIG. 9. The procedure: as §1
THP-1 cells are stimulated to produce IL-1β by the addition of 1 mg/mL opsonized zymosan. Geldanamycin is added to THP-1 cells by directly adding DMSO stock solutions, prepared earlier, at a 1/1000 dilution, to each well. […]
After a 24 hour stimulation, supernatants are collected to quantify IL-1β production. IL-1β concentrations in the supernatants are determined by ELISA using recombinant human IL-1β to obtain a standard curve. […] The dilution of Capture Antibody used is lot-specific and is determined empirically. […] Stop Solution (2 N H2SO4) is then added to the wells and a yellow colour reaction is read at 450 nm with λ correction at 570 nm. Mean absorbance is determined from triplicate data readings and the mean background is subtracted. […]

Experiment [3] concerns IL-8 production by THP-1 cells. The experiment in a line: IL-8 production by macrophages (opsonized zymosan stimulated, ELISA). The class given is cell-based. Particulars: Homo sapiens, 24 hours, 1 mg/mL opsonized zymosan, FIG. 10. The procedure: as §1
THP-1 cells are stimulated to produce IL-8 by the addition of 1 mg/mL opsonized zymosan. Geldanamycin is added to THP-1 cells by directly adding DMSO stock solutions, prepared earlier, at a 1/1000 dilution, to each well. […]
After a 24 hour stimulation, supernatants are collected to quantify IL-8 production. IL-8 concentrations in the supernatants are determined by ELISA using recombinant human IL-8 to obtain a standard curve. […] The dilution of Capture Antibody used is lot-specific and is determined empirically. […] Stop Solution (2 N H2SO4) is then added to the wells and a yellow colour reaction is read at 450 nm with λ correction at 570 nm. Mean absorbance is determined from triplicate data readings and the mean background is subtracted. […]

In the case of `[F][Al]([F])[F]` [AIF3], in the experiment with collagenase expression, the “concentration (as low as) preventing IL-1-induced collagenase expression” value (from here on “concentration”) turned out to be 100 nM.

As for `N#CC1=C(N)Oc2c(ccc3ccccc23)C1c1cccc([N+](=O)[O-])c1` (stereo not shown) [LY290181], the “concentration” value in the experiment with collagenase expression was 100 nM.

`O=C1c2c(O)ccc(O)c2C(=O)c2c(NCCNCCO)ccc(NCCNCCO)c21` [Mitoxantrone, 9,10-Anthracenedione, 1,4-dihydroxy-5,8-bis[[2-[(2-hydroxyethyl)amino]ethyl]amino]-]: the midpoint of inhibition in the experiment with human fibroblasts, the IC50, lay at 20 nM.

For `[2H]O[2H]` [deuterium oxide], in the experiment with collagenase expression, the “concentration” value was determined as 100 nM.

On to `COC1=C2C[C@@H](C)C[C@H](OC)[C@H](O)[C@@H](C)/C=C(\C)[C@H](OC(N)=O)[C@@H](OC)/C=C\C=C(/C)C(=O)NC(=CC1=O)C2=O` [geldanamycin], for which the IC50 in experiment [1] was 7 nM; in experiment [2] it was 20 nM; in experiment [3], 27 nM.

With `CCOC(=O)CN` [glycine ethyl ester], in the experiment with collagenase expression, the “concentration” value turned out to be 100 nM.

For “ethylene glycol bis-(succinimidylsuccinate)”, the “concentration” value with collagenase expression came to 100 nM.

For the molecule hexylene glycol, in the experiment on collagenase expression, the “concentration” value came out at 100 nM.

The term IC50 denotes the midpoint of a concentration-inhibition curve. Read a high IC50 as a need for much substance.
